# Results as given in ChEMBL document CHEMBL3804786, “Novel 1,3-thiazolidin-4-one derivatives as promising anti-Candida agents endowed with anti-oxidant and chelating properties” (Eur J Med Chem, 2016).
# Experiments:
# Staphylococcus aureus = experiment: Antibacterial activity against Staphylococcus aureus clinical isolate after 18 to 22 hrs by broth microdilution method; format: functional
# Staphylococcus warneri = experiment: Antibacterial activity against Staphylococcus warneri clinical isolate after 18 to 22 hrs by broth microdilution method; format: functional
# Enterococcus faecalis = experiment: Antibacterial activity against Streptococcus faecalis clinical isolate after 18 to 22 hrs by broth microdilution method; format: functional
# Escherichia coli = experiment: Antibacterial activity against Escherichia coli after clinical isolate 18 to 22 hrs by broth microdilution method; format: functional
# Proteus mirabilis = experiment: Antibacterial activity against Proteus mirabilis clinical isolate after 18 to 22 hrs by broth microdilution method; format: functional
# Enterobacter sp. = experiment: Antibacterial activity against Enterobacter spp. clinical isolate after 18 to 22 hrs by broth microdilution method; format: functional
# Klebsiella oxytoca = experiment: Antibacterial activity against Klebsiella oxytoca clinical isolate after 18 to 22 hrs by broth microdilution method; format: functional
# Candida albicans = experiment: Antifungal activity against Candida albicans clinical isolate after 24 hrs by broth microdilution method; format: functional
# Nakaseomyces glabratus = experiment: Antifungal activity against Candida glabrata clinical isolate after 24 hrs by broth microdilution method; format: functional
# Candida tropicalis = experiment: Antifungal activity against Candida tropicalis clinical isolate after 24 hrs by broth microdilution method; format: functional
# Pichia kudriavzevii = experiment: Antifungal activity against Candida krusei clinical isolate after 24 hrs by broth microdilution method; format: functional
# Candida parapsilosis = experiment: Antifungal activity against Candida parapsilosis clinical isolate after 24 hrs by broth microdilution method; format: functional; details: Lodderomyces parapsilosis
# [Candida] sake = Antifungal activity against Candida sake clinical isolate after 24 hrs by broth microdilution method; format: functional; details: Fermentozyma sake
# [1] = test system: Streptococcus sp. (viridans group); experiment: Antibacterial activity against Streptococcus alpha-hemolyticus clinical isolate after 18 to 22 hrs by broth microdilution method
SMILES,MIC (Staphylococcus aureus),MIC (Staphylococcus warneri),MIC (Enterococcus faecalis),MIC (Escherichia coli),MIC (Proteus mirabilis),MIC (Enterobacter sp.),MIC (Klebsiella oxytoca),MIC (Candida albicans),MIC (Nakaseomyces glabratus),MIC (Candida tropicalis),MIC (Pichia kudriavzevii),MIC (Candida parapsilosis),MIC ([Candida] sake),MIC [1]
CC(C)=N/N=C1\SCC(=O)N1Cc1ccccc1F,> 256 µg/mL,> 256 µg/mL,> 256 µg/mL,> 256 µg/mL,> 256 µg/mL,> 256 µg/mL,> 256 µg/mL,8 µg/mL,2 µg/mL,4 µg/mL,8 µg/mL,4 µg/mL,8 µg/mL,> 256 µg/mL
C/C(=N\N=C1/SCC(=O)N1Cc1ccccc1F)c1ccccn1,> 256 µg/mL,> 256 µg/mL,> 256 µg/mL,> 256 µg/mL,> 256 µg/mL,> 256 µg/mL,> 256 µg/mL,4 µg/mL,8 µg/mL,4 µg/mL,4 µg/mL,4 µg/mL,8 µg/mL,> 256 µg/mL
CC(C)=N/N=C1\SCC(=O)N1Cc1ccc(Cl)cc1,> 256 µg/mL,> 256 µg/mL,> 256 µg/mL,> 256 µg/mL,> 256 µg/mL,> 256 µg/mL,> 256 µg/mL,4 µg/mL,2 µg/mL,8 µg/mL,8 µg/mL,2 µg/mL,4 µg/mL,> 256 µg/mL
C/C(=N\N=C1/SCC(=O)N1Cc1cccc(F)c1)c1ccccn1,> 256 µg/mL,> 256 µg/mL,> 256 µg/mL,> 256 µg/mL,> 256 µg/mL,> 256 µg/mL,> 256 µg/mL,2 µg/mL,2 µg/mL,8 µg/mL,8 µg/mL,2 µg/mL,4 µg/mL,> 256 µg/mL
C/C(=N\N=C1/SCC(=O)N1Cc1ccccc1Cl)c1cccs1,> 256 µg/mL,> 256 µg/mL,> 256 µg/mL,> 256 µg/mL,> 256 µg/mL,> 256 µg/mL,> 256 µg/mL,4 µg/mL,4 µg/mL,2 µg/mL,8 µg/mL,8 µg/mL,8 µg/mL,> 256 µg/mL
CC(C)=N/N=C1\SCC(=O)N1Cc1ccccc1Cl,> 256 µg/mL,> 256 µg/mL,> 256 µg/mL,> 256 µg/mL,> 256 µg/mL,> 256 µg/mL,> 256 µg/mL,2 µg/mL,2 µg/mL,16 µg/mL,8 µg/mL,8 µg/mL,2 µg/mL,> 256 µg/mL
CC(C)=N/N=C1\SCC(=O)N1Cc1cccc(F)c1,> 256 µg/mL,> 256 µg/mL,> 256 µg/mL,> 256 µg/mL,> 256 µg/mL,> 256 µg/mL,> 256 µg/mL,4 µg/mL,4 µg/mL,4 µg/mL,4 µg/mL,2 µg/mL,8 µg/mL,> 256 µg/mL
O=C1CS/C(=N\N=C2CCCC2)N1Cc1cccc(F)c1,> 256 µg/mL,> 256 µg/mL,> 256 µg/mL,> 256 µg/mL,> 256 µg/mL,> 256 µg/mL,> 256 µg/mL,4 µg/mL,2 µg/mL,16 µg/mL,2 µg/mL,4 µg/mL,8 µg/mL,> 256 µg/mL
CC(C)=N/N=C1\SCC(=O)N1Cc1ccc(F)cc1,> 256 µg/mL,> 256 µg/mL,> 256 µg/mL,> 256 µg/mL,> 256 µg/mL,> 256 µg/mL,> 256 µg/mL,8 µg/mL,4 µg/mL,16 µg/mL,16 µg/mL,2 µg/mL,8 µg/mL,> 256 µg/mL
O=C1CS/C(=N\N=C2CCCC2)N1Cc1cccc([N+](=O)[O-])c1,> 256 µg/mL,> 256 µg/mL,> 256 µg/mL,> 256 µg/mL,> 256 µg/mL,> 256 µg/mL,> 256 µg/mL,4 µg/mL,16 µg/mL,4 µg/mL,8 µg/mL,4 µg/mL,2 µg/mL,> 256 µg/mL
C/C(=N\N=C1/SCC(=O)N1Cc1cccc([N+](=O)[O-])c1)c1ccccn1,> 256 µg/mL,> 256 µg/mL,> 256 µg/mL,> 256 µg/mL,> 256 µg/mL,> 256 µg/mL,> 256 µg/mL,4 µg/mL,2 µg/mL,8 µg/mL,8 µg/mL,8 µg/mL,4 µg/mL,> 256 µg/mL
O=C1CS/C(=N\N=C2CCCC2)N1Cc1ccc(F)cc1,> 256 µg/mL,> 256 µg/mL,> 256 µg/mL,> 256 µg/mL,> 256 µg/mL,> 256 µg/mL,> 256 µg/mL,8 µg/mL,4 µg/mL,16 µg/mL,8 µg/mL,2 µg/mL,8 µg/mL,> 256 µg/mL
CC(C)=N/N=C1\SCC(=O)N1Cc1cccc(Cl)c1,> 256 µg/mL,> 256 µg/mL,> 256 µg/mL,> 256 µg/mL,> 256 µg/mL,> 256 µg/mL,> 256 µg/mL,8 µg/mL,4 µg/mL,2 µg/mL,2 µg/mL,4 µg/mL,4 µg/mL,> 256 µg/mL
O=C1CS/C(=N\N=C2CCCC2)N1Cc1ccccc1Cl,> 256 µg/mL,> 256 µg/mL,> 256 µg/mL,> 256 µg/mL,> 256 µg/mL,> 256 µg/mL,> 256 µg/mL,2 µg/mL,4 µg/mL,4 µg/mL,8 µg/mL,8 µg/mL,2 µg/mL,> 256 µg/mL
O=C1CS/C(=N\N=C2CCCC2)N1Cc1cccc(Cl)c1,> 256 µg/mL,> 256 µg/mL,> 256 µg/mL,> 256 µg/mL,> 256 µg/mL,> 256 µg/mL,> 256 µg/mL,4 µg/mL,4 µg/mL,8 µg/mL,16 µg/mL,4 µg/mL,2 µg/mL,> 256 µg/mL
C/C(=N\N=C1/SCC(=O)N1Cc1cccc([N+](=O)[O-])c1)c1cccs1,> 256 µg/mL,> 256 µg/mL,> 256 µg/mL,> 256 µg/mL,> 256 µg/mL,> 256 µg/mL,> 256 µg/mL,4 µg/mL,2 µg/mL,4 µg/mL,2 µg/mL,8 µg/mL,4 µg/mL,> 256 µg/mL
C/C(=N/N=C1\SCC(=O)N1Cc1ccccc1[N+](=O)[O-])c1ccccn1,> 256 µg/mL,> 256 µg/mL,> 256 µg/mL,> 256 µg/mL,> 256 µg/mL,> 256 µg/mL,> 256 µg/mL,2 µg/mL,2 µg/mL,4 µg/mL,4 µg/mL,16 µg/mL,2 µg/mL,> 256 µg/mL
C/C(=N\N=C1/SCC(=O)N1Cc1ccccc1Cl)c1ccccn1,> 256 µg/mL,> 256 µg/mL,> 256 µg/mL,> 256 µg/mL,> 256 µg/mL,> 256 µg/mL,> 256 µg/mL,4 µg/mL,4 µg/mL,2 µg/mL,4 µg/mL,8 µg/mL,4 µg/mL,> 256 µg/mL
O=C1CS/C(=N\N=C2CCCC2)N1Cc1ccccc1[N+](=O)[O-],> 256 µg/mL,> 256 µg/mL,> 256 µg/mL,> 256 µg/mL,> 256 µg/mL,> 256 µg/mL,> 256 µg/mL,4 µg/mL,2 µg/mL,8 µg/mL,4 µg/mL,16 µg/mL,4 µg/mL,> 256 µg/mL
C[C@@H]1[C@H](O)[C@@H](C)/C=C/C=C/C=C/C=C/C=C/C=C/C=C/[C@H](O[C@@H]2O[C@H](C)[C@@H](O)[C@H](N)[C@@H]2O)C[C@@H]2O[C@](O)(C[C@@H](O)C[C@@H](O)[C@H](O)CC[C@@H](O)C[C@@H](O)CC(=O)O[C@H]1C)C[C@H](O)[C@H]2C(=O)O [AMPHOTERICIN B],,,,,,,,4 µg/mL,4 µg/mL,2 µg/mL,4 µg/mL,2 µg/mL,2 µg/mL,
CC(C)(O/N=C(\C(=O)N[C@@H]1C(=O)N2C(C(=O)[O-])=C(C[n+]3ccccc3)CS[C@H]12)c1csc(N)n1)C(=O)O [CEFTAZIDIME],2 µg/mL,4 µg/mL,4 µg/mL,4 µg/mL,8 µg/mL,8 µg/mL,8 µg/mL,,,,,,,4 µg/mL
OC(Cn1cncn1)(Cn1cncn1)c1ccc(F)cc1F [FLUCONAZOLE],,,,,,,,2 µg/mL,2 µg/mL,2 µg/mL,2 µg/mL,2 µg/mL,2 µg/mL,
CC(=O)N1CCN(c2ccc(OCC3COC(Cn4ccnc4)(c4ccc(Cl)cc4Cl)O3)cc2)CC1 (centres undefined) [KETOCONAZOLE],,,,,,,,2 µg/mL,2 µg/mL,2 µg/mL,4 µg/mL,2 µg/mL,4 µg/mL,
Clc1ccc(COC(Cn2ccnc2)c2ccc(Cl)cc2Cl)c(Cl)c1 (centres undefined) [MICONAZOLE],,,,,,,,2 µg/mL,4 µg/mL,2 µg/mL,4 µg/mL,4 µg/mL,2 µg/mL,
Clc1ccc(C(Cn2ccnc2)OCc2ccsc2Cl)c(Cl)c1 (centres undefined) [TIOCONAZOLE],,,,,,,,8 µg/mL,4 µg/mL,8 µg/mL,8 µg/mL,8 µg/mL,4 µg/mL,
